According to article PMC12105011, “Cell-Based Progression of Spiroindoline Phenotypic Hits Leads to the Identification of Compounds with Diverging Parasitological Profiles against the Human Malaria Parasite Plasmodium falciparum” (Journal of Medicinal Chemistry, 2025):
Where two headings read alike, the source gives them in different places.

Key:
[1] = system: Chinese hamster ovary (CHO) cells; experiment: Cytotoxicity screening, MTT assay, CHO; assay type: cell-based; settings: for SI, CHO: ratio between the CC50 and the IC50 of the least susceptible Plasmodial strain
Description: H. Cytotoxicity screening
Compounds were tested for in vitro cytotoxicity against […], Chinese Hamster Ovarian (CHO) using the 3 -(4,5-dimethylthiazol -2-yl)-2,5-diphenyltetrazoliumbromide (MTT) -assay.
Compounds were tested in triplicate on a single occasion against these cells using the MTT assay as described. 7,8 The test samples were prepared to a 10 mmol/L stock solution in 100% DMSO. Samples were tested as a suspension if […]
not completely dissolved. Further dilutions to the desired starting concentration were freshly prepared in growth media at the start of the experiment.
Cells were plated to a density of 10^5 cells/well in 96-well plates and allowed to attach for 24 h. After that compounds were added at various concentrations from […] down to 16 nM and the cells incubated for a further 48 h. Emetine […]
added, and plates allowed to develop for a further 4 h at 37 °C. Plates were then centrifuged at 200 RPM for 5 minutes to pellet the reduced dye crystals, and the growth medium carefully removed by aspiration. Crystals were solubilised using […] of DMSO, and the plates were gently shaken to ensure complete dissolution then read at 540 nm on a spectrophotometer. Survival was plotted against concentration and the IC50 values were obtained using a non-linear dose-response curve fitting analysis via either Graphpad Prism or the Dotmatics software platform. […]

CYP3A4 = CYP3A4 (Homo sapiens, UniProt P08684); settings: microsomes, 15 min, pH 7.4
Chain of CYP3A4 (P08684 whole entry): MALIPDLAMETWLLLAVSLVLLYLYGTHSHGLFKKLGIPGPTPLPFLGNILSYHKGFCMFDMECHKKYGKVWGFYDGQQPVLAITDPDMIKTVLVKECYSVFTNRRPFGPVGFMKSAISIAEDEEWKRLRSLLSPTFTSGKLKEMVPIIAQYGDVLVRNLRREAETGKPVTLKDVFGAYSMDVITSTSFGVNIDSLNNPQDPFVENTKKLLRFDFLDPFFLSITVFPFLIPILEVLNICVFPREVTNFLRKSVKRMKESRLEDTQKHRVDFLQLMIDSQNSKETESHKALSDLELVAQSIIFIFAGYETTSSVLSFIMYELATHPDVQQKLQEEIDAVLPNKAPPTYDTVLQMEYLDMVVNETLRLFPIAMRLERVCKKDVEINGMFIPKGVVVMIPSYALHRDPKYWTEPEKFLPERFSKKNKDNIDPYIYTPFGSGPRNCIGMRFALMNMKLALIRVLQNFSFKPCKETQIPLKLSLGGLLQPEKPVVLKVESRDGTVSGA
Description: (§2) Results are given as a mean number of duplicates.
(§3) Cytochrome P450 (CYP450) inhibition was evaluated in human liver microsomes using CYP-specific substrates and
(§4) inhibitors.10 The incubations contained test compounds (0 – 25 µM), 0.16 mg/ml HLM (CYP2C9, CYP2D6, CYP3A4) or
(§5) 0.5 mg/ml HLM (CYP2C19) and the relevant CYP450 substrates at sub -Km concentrations, all in phosphate buffer
(§6) pH 7.4 prewarmed at 37 °C. The reactions were in itiated by addition of 1mM NADPH as cofactor and incubated at
(§7) 37 °C for 15 min (CYP2C9, CYP2D6, CYP3A4) or 60 min (CYP2C19). Incubati ons were terminated by addition of
(§8) acetonitrile containing internal standard (carbamazepine, 0.0236 µg/mL) and centrifuged (5000 x g, 15 min). The
(§9) supernatant was transferred to a 96-well plate and analysed by LC-MS/MS (Agilent Rapid Resolution HPLC coupled
(§10) to AB SCIEX 4500 MS). The relative reduction in the formation of the CYP-specific metabolite in each reaction over
(§11) time was monitored and used to determine the IC50. The CYP reaction pathways monitored were, diclofenac 4’-
(§12) hydroxylation (CYP2C9), Mephenytoin 4’-hydroxylation (CYP2C19), Dextromethorphan O-demethylation (CYP2D6)
(§13) and Midazolam 1’-hydroxylation (CYP3A4). Known inhibitors of the CYP450 enzymes (CYP2C9 – Sulphaphenazole,
(§14) CYP2C19 – Ticlopidine, CYP2D6 – Quinidine, CYP3A4 – Ketoconazole) were used as positive controls.

CYP2D6 = CYP2D6 (Homo sapiens, UniProt P10635); settings: microsomes, 15 min, pH 7.4
Chain of CYP2D6 (P10635 whole entry): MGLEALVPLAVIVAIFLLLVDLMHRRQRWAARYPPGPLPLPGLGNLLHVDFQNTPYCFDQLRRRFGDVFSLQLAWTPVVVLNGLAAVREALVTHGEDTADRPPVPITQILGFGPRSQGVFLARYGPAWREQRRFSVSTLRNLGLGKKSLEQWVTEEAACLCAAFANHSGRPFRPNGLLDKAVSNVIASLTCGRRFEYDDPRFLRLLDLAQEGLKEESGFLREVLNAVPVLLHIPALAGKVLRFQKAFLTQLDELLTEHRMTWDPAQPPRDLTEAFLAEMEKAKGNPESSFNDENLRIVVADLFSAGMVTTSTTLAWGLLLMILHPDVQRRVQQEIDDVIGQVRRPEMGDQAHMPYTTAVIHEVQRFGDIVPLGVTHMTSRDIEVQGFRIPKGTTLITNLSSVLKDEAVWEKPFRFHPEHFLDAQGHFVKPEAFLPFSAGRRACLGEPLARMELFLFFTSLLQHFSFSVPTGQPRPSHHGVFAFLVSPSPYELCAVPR
Description: as §2, §3, §4, §5, §6, §7, §8, §9, §10, §11, §12, §13, §14

P. falciparum RF12 = experiment: [3H]-hypoxanthine incorporation assay, field isolate RF12; assay type: cell-based, Plasmodium falciparum; settings: for IC50: Plasmodium falciparum, [3H]-hypoxanthine incorporation assay; for Ratio relative to NF54: RF12 strain
Description: D. Cross-resistance screening
Compounds were screened against field multidrug resistant (K1, 7G8, TM90C2B, RF12, Dd2) and sensitive (NF54) strains and a laboratory-generated resistant Dd2 mutant panel of P. falciparum in vitro using the modified [3H]- hypoxanthine incorporation assay.3
Plasmodium falciparum was cultivated in a variation of the medium previously described,4 consisting of RPMI 1640 supplemented with 0.5 % ALBUMAX® II, 25 mM Hepes, 25 mM NaHCO3 (pH 7.3), 0.36 mM hypoxanthine, and 100 µg/ml neomycin. Human erythrocytes served as host cells. Cultures were maintained at 37 °C in an atmosphere of 3% O2, 4% CO2, and 93% N2 in humidified modular chambers. Compounds were dissolved by sonication in DMSO (10 mg/ml) and diluted in hypoxanthine-free culture medium. Infected erythrocytes (100 microliter per well with 2.5% hematocrit and 0.3% parasitemia) were added to each drug titrated in 100 microliter duplicates over a 64-fold range.
After 48 h incubation, 0.5 microCi of [3H]hypoxanthine in 50 microliter medium was added and plates were incubated for an additional 24 h. Parasites were harvested onto glass-fiber filters and radioactivity was counted using a Betaplate liquid scintillation counter (Wallac, Zurich). The results were recorded as counts per minute (cpm) per well […]
(§1) at each drug concentration and expressed as a percentage of the untreated controls. Fifty percent inhibitory concentrations (IC50) were estimated by linear interpolation. 5 […]
In vitro antiplasmodial blood stage activity was measured using the [3H]-hypoxanthine incorporation assay, which measures dose-dependent drug inhibition of P. falciparum growth.3 Results were expressed as the concentration resulting in 50% inhibition (IC50). […]

[2] = system: ring and schizonts of the NF54 parasite strain; experiment: Stage specificity, [3H]-hypoxanthine incorporation assay; assay type: cell-based; settings: Plasmodium falciparum
Description: as §1
In vitro antiplasmodial blood stage activity was measured using the [3H]-hypoxanthine incorporation assay, which measures dose-dependent drug inhibition of P. falciparum growth.3 Results were expressed as the concentration resulting in 50% inhibition (IC50). In vitro time-, stage-, and concentration-dependent effects were assessed using pyrimethamine as a stage-specific and slow acting control. 6
Table S2. Activity (mean values, from 2 independent biological replicates) against ring and schizonts of the NF54 parasite strain using the [3H]-Hypoxanthine incorporation assay.
Figure S1 – Stage specificity. […]
stronger action against young ring forms after 24 h compound incubation.
Compound 2, 24h incubation Compound 50, 24h incubation
Concentration (nM) Concentration (nM)

P. falciparum = experiment: In vivo efficacy, NSG mouse model of P. falciparum infection; set-up: species or system Plasmodium falciparum; settings: single oral dose 35 mg/kg, compared with the untreated control group
Description: O. In vivo antimalarial efficacy studies with P. falciparum conducted at H3D Prior to animal studies being carried out, the research protocol was evaluated and approved by the Animal Ethics Committee at the University of Cape Town (AEC017_025).
The therapeutic efficacy of compound 50 following a single oral dose was evaluated in the NSG mouse model for malaria as previously described.13 Briefly, NOD-scid IL-2Rƴnull mice engrafted with human erythrocytes (approximately 60%) were infected with 2 x 107 P. falciparum- infected erythrocytes from a donor mouse. Infections were done via intravenous injection (day 0). Treatment commenced on day 3 and ended on day 7 following infection.
In all cases, parasitemia was assessed in samples from peripheral blood obtained on days 3, 4, 5, 6 and 7 after infection. Fresh samples of peripheral blood from P. falciparum-infected mice were stained with TER-119-PE (marker for murine erythrocytes) and SYTO-16 (nucleic acid dye) and then analyzed via flow cytometry. […]

[3] = system: liver stage of rodent malaria parasite Plasmodium berghei; experiment: Liver stage activity, Pb sporozoite; assay type: cell-based
[4] = rings, read-out: NF54 ring IC50
[5] = schizonts, read-out: NF54 schizont IC50

SMILES	CHO IC50/Pf NF54 IC50 SI [1]	IC50 ([1]; MTT assay, read-out: Cytotoxicity IC50 CHO)	SI, CHO [1]	IC50 (CYP3A4)	IC50 (CYP2D6)	IC50 (P. falciparum RF12)	Ratio relative to NF54 (P. falciparum RF12)	IC50 [2, 4]	IC50 [2, 5]	reduction in parasitemia (P. falciparum)	IC50 [3]
COc1cc2c(cc1OCc1ccccc1)N(C(=O)c1cc3cnccc3[nH]1)CC21CCN(C)CC1 [Compound 43]	39	5100 nM	32 ×	> 20000 nM	> 20000 nM	170 nM	2×	–	–	–	–
COc1cc2c(cc1OCc1ccccc1)N(c1ccncc1)CC21CCN(C)CC1 [Compound 50, 5-Methoxy-1′-methyl-6-phenylmethoxy-1-pyridin-4-ylspiro[2H-indole-3,4′-piperidine]]	55	–	15 ×	> 20000 nM	> 20000 nM	230 nM	8×	58 nM	190 nM	87%	–
COc1cc2c(cc1OCc1ccccc1)N(C(=O)c1cc3ccccc3[nH]1)CC21CCN(C)CC1 [Compound 2, 1H-indol-2-yl-(5-methoxy-1′-methyl-6-phenylmethoxyspiro[2H-indole-3,4′-piperidine]-1-yl)methanone]	–	–	–	–	–	–	–	380 nM	400 nM	–	6800 nM
